Reference: US8414989B2, “Cyclodextrin compositions, articles, and methods” (Cellresin Technologies, LLC, priority 2011, dated 2013)

Assay: Example 1: 1-MCP headspace release from UV-cured isobornyl acrylate coating with 1-MCP/c/α-CD on PET film (GC-FID)
Type: physicochemical
Details: 1 cm x 1 cm cured coated square, 250 mL bottle
Experimental: A cyclodextrin inclusion complex is formed from α-cyclodextrin and 1-methyl cyclopropene (1-MCP) using the technique described by Neoh, T. L. et al., J. Agric. Food Chem. 2007, 55, 11020-11026 “Kinetics of Molecular Encapsulation of 1-Methylcyclopropene into α-Cyclodextrin.” The inclusion complex is termed “1-MCP/c/α-CD.” A 500 mL bottle is charged with 97.0 g of isobornyl acrylate, 1.0 g of hexanediol diacrylate, 1.0 g of 1-MCP/c/α-CD, and 1.0 g of […] (IRGACURE® 184, obtained from Ciba Specialty Chemicals Corp. of Tarrytown, N.Y.). The bottle is firmly capped and the components are mixed by shaking the bottle briefly by hand.
About 2 mL of the mixture is removed with a metered dropper and dispensed on an 8.5 inch by 11 inch PET film and drawn down using a metering rod (Mayer rod) having a delivered coating thickness of 25 microns. Then the coated PET film is placed on a flat surface approximately 5 cm beneath a medium pressure mercury arc lamp operating at 200 watts per inch (79 watts per cm). After 30 seconds under the lamp, the film is removed. A silicone coated PET sheet (about 50 microns thick) is placed over the cured coating and allowed to sit on a laboratory bench overnight.
A die cutter is used to cut a 1 cm by 1 cm square of the coated portion of the sheet. […] Headspace concentrations of 1-MCP are measured after 1 hour following introduction of the coated square into bottle. The 1-MCP headspace concentration is quantified using gas chromatography by removing 1 mL of gas from the sample bottle using a gas sampling valve interfaced directly to a GC column having FID detector.
Then 50 μl of deionized water is injected into the jar. […] The sealed jar is allowed to sit on the lab bench for one hour after the injection of water, then a second headspace sample is analyzed. A final headspace sample is analyzed 24 hours after the injection of water. At 1 hour after injection of the water, 0.5 ppm of 1-MCP is measured in the headspace. After 24 hours, 0.5 ppm of 1-MCP is measured in the headspace.

For CC1=CC1 [1-MCP, 1-methylcyclopropene], the “Headspace concentration of 1-MCP” value (1 hour after injection of 50 μl water) was 0.5 ppm, the “Headspace concentration of 1-MCP” value (24 hours after injection of 50 μl water) was 0.5 ppm and the “Headspace concentration of 1-MCP” value (no water added, 1 hour) was “No measurable concentration”.
